# Test results published in paper PMC3024946, “Hydroxyproline-containing collagen analogs trigger the release and activation of collagen-sequestered proMMP-2 by competition with prodomain-derived peptide P33-42” (Fibrogenesis & Tissue Repair, 2011).
# “Also recorded” adds a separate entry of the source.
# How the values were obtained:
# ProMMP-2 [1] = assay: Fluorogenic short-substrate assay, activation of proMMP-2; assay type: biochemical, human; conditions: 10-fold excess; 50 ng proMMP-2; 800 nM MCA-Pro-Leu-Gly-Leu-Dnp-Dap-Ala-Arg-NH2; 37°C; on BSA or CI
# Method: Enzymatic activities of MMPs were studied spectrofluorimetrically by cleavage of fluorogenic substrates in MMP activity buffer within 2 to 5 h. For gelatinases 800 nM MCA-Pro-Leu-Gly-Leu-Dnp-Dap-Ala-Arg-NH2 (λex/em 328/393 nm; Bachem, Bubendorf, Switzerland) or 10 μg/ml DQ-gelatine were used, according to the method described by Knight et al. for collagenases 800 nM MCA-Pro-Cha-Gly-Nva-His-Ala-Dpa-NH2 (λex/em 280/360 nm; Anaspec, San José, CA, USA). In some experiments, proMMP-2 was fully activated in the presence of 1 mM APMA prior to the kinetic measurements. A quantity of 50 ng pro- or actMMP-2 alone or mixed with 10- to 150-fold molar excesses of (GPO)10, GAP, P33-42 or mixtures of (GPO)10 and P33-42, were added to CI-coated, BSA-coated (1 μg/well both) or uncoated wells containing 150 μl of the respective substrate solution. The peptide P33-42 was purchased from the Institute of Biochemistry (Humboldt-University, Berlin, Germany). The influence of CI on MMP-2 enzymatic activity against the quenched fluorescent substrate could be excluded. Background subtraction (measurement without MMPs) was applied to all curves. All experiments were performed with a fluorescence microplate reader (Molecular Devices, Sunnyvale, CA, USA) and black 96-well microtiter plates with a clear bottom (Greiner bio-one, Frickenhausen, Germany).
# ProMMP-2 [2] = assay: Substrate gel zymography of treated proMMP-2; assay type: biochemical, human; conditions: 50 ng proMMP-2, 2-h incubation at room temperature
# Method: Samples containing MMP-2 were diluted with zymogram sample buffer (Bio-Rad, Munich, Germany) and separated on homogeneous 10% SDS-PAGE gels containing 1 mg/ml (wt/vol) gelatine (Bio-Rad), washed with excess MMP activity buffer containing 2.5% (vol/vol) Triton X-100 to remove SDS, and incubated with MMP activity buffer for 24 h. Gels were stained with Coomassie Blue R-250. Gels showing proteolytic bands corresponding to proMMP-2 (72 kDa) or actMMP-2 (62 kDa) were scanned (Plustek, Norderstedt, Germany) and analyzed from inverted grayscale images.
# proMMP-2 / CI = molecular target: T1, proMMP-2 / CI (Homo sapiens, UniProt P08253); assay: SPR, competition of proMMP-2 binding to CI, MMP activity buffer; conditions: proMMP-2 (25-150 nM), 10-fold molar excess, no inhibitor
# T1 construct: prodomain-containing proMMP-2 or proMMP-9; purchased Invitek
# T1 sequence (P08253 30-660 limits assumed): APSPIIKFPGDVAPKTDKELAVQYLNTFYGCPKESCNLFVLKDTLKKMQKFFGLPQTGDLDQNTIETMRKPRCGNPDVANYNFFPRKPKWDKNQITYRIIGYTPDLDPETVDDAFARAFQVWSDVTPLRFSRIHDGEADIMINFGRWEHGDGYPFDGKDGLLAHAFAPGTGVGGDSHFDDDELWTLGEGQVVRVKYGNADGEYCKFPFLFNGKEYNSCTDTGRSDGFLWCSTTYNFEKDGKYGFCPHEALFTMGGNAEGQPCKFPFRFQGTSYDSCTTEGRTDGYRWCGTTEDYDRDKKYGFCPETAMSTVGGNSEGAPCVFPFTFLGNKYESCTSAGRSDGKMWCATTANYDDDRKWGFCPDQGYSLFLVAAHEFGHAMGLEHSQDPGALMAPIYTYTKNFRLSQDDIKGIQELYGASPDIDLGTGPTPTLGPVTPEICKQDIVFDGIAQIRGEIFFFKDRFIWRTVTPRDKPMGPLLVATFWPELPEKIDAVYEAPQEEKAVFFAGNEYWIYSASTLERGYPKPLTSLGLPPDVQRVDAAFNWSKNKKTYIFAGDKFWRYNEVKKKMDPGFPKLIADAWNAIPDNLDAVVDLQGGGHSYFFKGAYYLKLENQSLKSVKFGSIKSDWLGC
# Method: (§1) Sensor chip preparations and SPR measurements were performed using a BiacoreX device and the Bia-evaluation software (version 3.2; Biacore, Uppsala, Sweden). The pepsin-resistant triple-helical part of human fibrillar CI (100 μg/ml) in 10 mM acetate coupling buffer, pH 4.8, was immobilized to a dextran matrix-sensor chip at a flow rate of 5 μl/min, resulting in 5,500 resonance units from CI covalently linked via its primary amino groups. The control flow cell was prepared using the coupling buffer without CI. Surfaces were activated and blocked as described previously. […] The effects of (GPO)10, GAP, (POG)5, (GPP)10 and P33-42 on MMP-2 and MMP-9 binding to CI and their enzymatic activity were determined by adding the binding competitors to the (pro- and act)MMP-2 and MMP-9 solution in 10- to 150-fold molar excesses. Effects independent of MMP-2 and MMP-9 activity were monitored in the presence of Ro 28-2653 (1 μM) during SPR analysis. […] Kinetic parameters were analyzed using the 1:1 binding model with drifting baseline and subtraction of the control flow cell binding from sensorgrams obtained with immobilized CI. Binding constants (Kd) were calculated from the association (ka) and dissociation rates (kd) obtained from individual binding curves at different concentrations. […]
# proMMP-9 / CI = molecular target: T2, proMMP-9 / CI (Homo sapiens, UniProt P14780); assay: SPR, competition of proMMP-9 binding to CI, MMP activity buffer; conditions: proMMP-9 (25-150 nM), 10-fold molar excess
# T2 construct: prodomain-containing proMMP-2 or proMMP-9; purchased Invitek
# T2 sequence (P14780 20-707 limits assumed): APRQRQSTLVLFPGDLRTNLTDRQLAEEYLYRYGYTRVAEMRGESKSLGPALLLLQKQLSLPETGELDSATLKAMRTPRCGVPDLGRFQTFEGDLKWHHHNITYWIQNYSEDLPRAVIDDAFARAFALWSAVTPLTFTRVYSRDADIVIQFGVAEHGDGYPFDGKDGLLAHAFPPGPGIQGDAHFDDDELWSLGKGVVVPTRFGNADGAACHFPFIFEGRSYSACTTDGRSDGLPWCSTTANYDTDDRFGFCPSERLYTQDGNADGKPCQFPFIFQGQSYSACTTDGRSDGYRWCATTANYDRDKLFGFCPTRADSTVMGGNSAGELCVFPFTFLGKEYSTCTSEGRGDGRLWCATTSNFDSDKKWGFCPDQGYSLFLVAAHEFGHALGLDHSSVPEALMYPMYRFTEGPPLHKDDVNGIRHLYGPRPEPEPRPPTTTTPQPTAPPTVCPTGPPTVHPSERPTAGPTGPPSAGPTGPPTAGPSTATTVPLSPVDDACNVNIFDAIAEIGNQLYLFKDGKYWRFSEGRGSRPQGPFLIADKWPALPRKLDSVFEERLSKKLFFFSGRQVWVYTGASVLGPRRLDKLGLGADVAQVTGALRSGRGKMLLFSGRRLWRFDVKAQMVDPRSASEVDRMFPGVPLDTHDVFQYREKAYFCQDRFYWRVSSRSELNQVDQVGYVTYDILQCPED
# Method: as §1
substance,measurement,setting,value
"H-Gly-Cys-Hyp-(Gly-Pro-Hyp)10-Gly-Cys-Hyp-Gly-NH2 [(GPO)10, triple-helical Hyp-containing collagen analog]",activation of proMMP-2,ProMMP-2 [1],resulted in the same plateau activity as actMMP-2 without (GPO)10
same,"substrate zymography, prodomain-free actMMP-2 band",ProMMP-2 [2],faint band of prodomain-free actMMP-2; also recorded: not accompanied by strong prodomain cleavage
same,effect on SPR signal on CI,proMMP-2 / CI,reduction in resonance units below baseline levels
same,effect on binding to CI,proMMP-9 / CI,abolished binding of proMMP-9 to CI
